According to EPA's CvTdb concentration-time database (doi:10.1093/toxsci/kfy020):

Tested on: rat
Assay: concentration in plasma after dosing
Settings: dosed: Ondansetron, male, Sprague-Dawley

Cc1nccn1CC1CCc2c(c3ccccc3n2C)C1=O (stereo not given) [Ondansetron]
concentration in plasma [ng/mL]
Settings | 1.0000000000 mg/kg | 4.0000000000 mg/kg | 8.0000000000 mg/kg | 20.0000000000 mg/kg
0.05 h, iv | 781 | 3050 | 6280 | 17600
0.05 h, oral | – | 70 | 100 | 491
0.25 h, iv | 231 | 830 | 1860 | 5550
0.5 h, iv | 129 | 429 | 960 | 2930
0.5 h, oral | – | 49.1 | 92 | 288
0.75 h, iv | 72.6 | 256 | 597 | 1860
1 h, iv | 47.1 | 176 | 379 | 1260
1 h, oral | – | 23.5 | 40.6 | 165
1 min, iv | 16200 | 37100 | 104000 | 175000
1.25 h, iv | 31.1 | 112 | 246 | 813
1.5 h, iv | – | 75.7 | 176 | 561
1.5 h, oral | – | – | 21.4 | 82.7
2 h, iv | – | 38.3 | 87.4 | 308
2 h, oral | – | – | – | 46.8
2.5 h, iv | – | – | 44.2 | 184
3 h, iv | – | – | 23.3 | 101
4 h, iv | – | – | – | 39.1
5 min, oral | – | 244 | 249 | 1110
7 min, iv | 420 | 1480 | 3240 | 10100
10 min, oral | – | 171 | 298 | 808
20 min, oral | – | 83.7 | 138 | 441
40 min, oral | – | 39.6 | 70 | 255
50 min, oral | – | 30.2 | 57.9 | 197
